Measurements published in article PMC2714906 (Endocrine, 2009).
Entries after “also recorded” stand apart in the source; their conditions may differ.

Experiments:
[1] = test system: sensory neuron-specific receptor (SNSR1); details: ref [65], [66]; cited from earlier work
Y1 receptor = assay type: cell-based; details: 50 nM, HEK tsA201 cells expressing Y1 receptor and N-type VDCC; for Reduction of IBa (N-type VDCC barium current): whole-cell, 22°C, pH 7.20
[2] = IV peptide MAP and HR cardiovascular responses in urethane-anesthetized rats; assay type: in vivo, rat (Sprague Dawley); details: for Cardiovascular response (MAP and HR), in words: IV γ-MSH 15 nmol or NPY 5 nmol; for Cardiovascular response (MAP and HR), in words / Increase in MAP: rats; for Increase in MAP: IV, compare Fig. 5a with Fig. 4b
[3] = cited from earlier work; for Effect on central regulation of feeding behavior, in words: peripheral administration, ref [15], [45]
NPFF receptors = details: ref [16]–[19]; cited from earlier work
other Y receptors = details: cited from earlier work; for Effects at other Y receptors, in words: ref [15]; for Binding to other Y receptors, in words: ref [23]
[4] = cited from earlier work
[5] = test system: IV NPY cardiovascular response; experiment: BIBO3304 effect on IV NPY, NPY analog and ANG II cardiovascular responses; assay type: in vivo, rat (Sprague Dawley); details: for PRE vs POST BIBO3304 pressor response, in words: IV peptide
[6] = test system: IV γ-MSH cardiovascular response; experiment: BIBO3304 effect on IV γ-MSH and γ-MSH6–12 cardiovascular responses; assay type: in vivo, rat (Sprague Dawley)
rat Y1 receptor = experiment: Rat Y1 receptor binding, competition with 125I-pPYY; details: competition with iodinated PYY; CHO cells expressing rat Y1 receptor
[7] = test system: sensory neuron-specific receptor (SNSR1); details: ref [65], [66]; cited from earlier work; remark: listed apart in the source
[8] = ref [8], cited from earlier work
[9] = NPY 5 nmol IV, change from baseline, mean ± standard error
[10] = ICV BIBO3304, NPY 5 nmol IV, PRE vs POST, n = 7
[11] = central BIBO3304, summary in Discussion

neuropeptide Y [NPY]
SNSR1 binding, in words [1]: nanomolar NPY binding | Effect on N-type VDCC / IBa, in words (Y1 receptor): significant decreases in N-type VDCC activity; also recorded: significantly different from the effects of γ-MSH or γ-MSH6–12 | Reduction of IBa (N-type VDCC barium current) (Y1 receptor): ~50% | Duration of pressor response, in words ([2]; IV NPY 5 nmol compared to γ-MSH, P <0.05, n = 7): lasted significantly longer than that of γ-MSH for a relatively similar change in peak MAP | Cardiovascular response (MAP and HR), in words [2]: during the mid-point of the pressor response the bradycardia reversed to a cardioaccelerator response; also recorded: produces prolonged pressor and HR responses | Increase in MAP ([2]; mean ± standard error): 41.9 ± 4 mmHg | Peak bradycardia response [2, 9]: −53 ± 18 BPM | Peak tachycardia response [2, 9]: 49 ± 14 BPM | Baseline HR ([2]; baseline of the NPY 5 nmol IV group, mean ± standard error): 360 ± 11 BPM

NC(N)=NCCC[C@@H](NC(=O)C(c1ccccc1)c1ccccc1)C(=O)NCc1ccc(O)cc1 [BIBP3226]
Effect on central regulation of feeding behavior, in words [3]: affects central regulation of feeding behavior | Binding at NPFF receptors, in words (NPFF receptors): nanomolar-binding efficacy at NPFF receptors | Effects at other Y receptors, in words (other Y receptors): not reported to have significant effects at other Y receptors

Des-AA10–17-cyclo-7/21[Cys7,21, Pro34] NPY [NPY-CVa]
Pressor activity of NPY-CVa, in words ([4]; ref [26]): significant pressor activity | Orexigenic activity, in words ([3]; ref [23], [26]): without orexigenic activity; also recorded: lacks Y1-like orexigenic activity | Increase in MAP ([2]; mean ± standard error): 26 ± 3 mmHg | Binding to other Y receptors, in words (other Y receptors): significant binding to other Y receptors

angiotensin II [ANG II]
Peak MAP response, POST ICV BIBO3304 ([5]; IV ANG II 5 nmol, POST, mean ± standard error): 54 ± 2 mmHg | Peak MAP response, PRE ICV BIBO3304 ([5]; IV ANG II 5 nmol, PRE, mean ± standard error): 66 ± 6 mmHg | PRE vs POST BIBO3304 pressor response, in words ([5]; ICV or IV BIBO3304): not significantly different at pre and post central BIBO3304 administration | PRE vs POST BIBO3304 pressor response, in words ([5]; ICV or IV BIBO3304, listed as AII): not significantly different

NC(=O)NCc1ccc(CNC(=O)[C@@H](CCCN=C(N)N)NC(=O)C(c2ccccc2)c2ccccc2)cc1 [BIBO3304]
Area under the MAP response curve, effect of BIBO3304, in words ([5]; ICV BIBO3304, IV NPY agonists 5 nmol): Only the area under the NPY MAP response curve is reduced by drug treatment | Effect on IV NPY cardiovascular response, in words ([5]; ICV BIBO3304, NPY 5 nmol IV): significant decrease in the IV NPY cardiovascular response; also recorded: blood pressure responses of NPY are significantly reduced | Decrease in IV NPY-induced MAP response [5, 10]: > 40% | Decrease in total NPY pressor response (MAP curve area) [5, 10]: > 70% | Effect on γ-MSH6–12 and NPY-CVa MAP responses, in words ([5]; ICV BIBO3304, two graded doses of either peptide IV (Fig. 5a)): produced significant MAP reductions for both doses of either peptide | Effect on (D-Arg25) NPY MAP / total pressor response, in words ([5]; ICV or IV BIBO3304, (D-Arg25) NPY IV): did not change the MAP response of D-Arg25 NPY; also recorded: did not significantly affect the MAP response or total pressor response of a Y1 receptor agonist (D-Arg25) NPY; also recorded: no significant effect on D-Arg25 NPY | Effect on γ-MSH6–12 and NPY-CVa MAP responses, in words (IV BIBO3304) ([5]; IV BIBO3304, two graded doses IV (Fig. 5b)): significant reductions in MAP for both doses of γ-MSH6–12 and NPY-CVa | Effect on IV NPY-CVa cardiovascular activity, in words ([5]; central or peripheral BIBO3304, NPY-CVa IV): IV NPY-CVa cardiovascular activity was sensitive to central or peripheral BIBO3304 administration | Reduction of IV NPY-CVa pressor response ([5]; central or systemic BIBO3304, NPY-CVa 5 or 20 nM doses (so in the source) IV): up to 55% | Attenuation of total γ-MSH pressor response (MAP curve area, height × width) ([6]; ICV BIBO3304, IV γ-MSH, PRE vs POST, n = 7): > 60% | Attenuation of MAP response of γ-MSH or γ-MSH6–12 (either peptide) ([6]; ICV BIBO3304, several IV doses of γ-MSH and γ-MSH6–12, subsequent study): > 50% | Attenuation of pressor responses of γ-MSH and γ-MSH6–12, in words ([6]; IV or ICV BIBO3304, peptide IV): significantly attenuated the pressor responses of γ-MSH and the γ-MSH analog | Reduction in total γ-MSH pressor response ([6]; central BIBO3304, IV γ-MSH, summary in Discussion): 75% | Inhibition of HR response to several IV γ-MSH doses [6, 11]: ~50% | Inhibition of peak MAP response to several IV γ-MSH doses [6, 11]: ~50% | Change in baseline cardiovascular parameters ([6]; central or peripheral BIBO3304 alone, n = 7): no significant changes in any baseline cardiovascular parameters | Effect on central regulation of feeding behavior, in words [3]: affects central regulation of feeding behavior | Binding at NPFF receptors, in words (NPFF receptors): nanomolar-binding efficacy at NPFF receptors | Effects at other Y receptors, in words (other Y receptors): not reported to have significant effects at other Y receptors | Binding to other Y receptors, in words (other Y receptors): none of these receptors shows significant binding of BIBO3304

FMRFamide
Competition for rat Y1 receptor binding, in words (rat Y1 receptor): failed to bind to these receptors; also recorded: Neither γ-MSH nor FMRFamide (a model RFamide peptide) competed with iodinated PYY for binding to the rat Y1 receptors

gamma-melanocyte stimulating hormone [γ-MSH]
Effect on N-type VDCC / IBa, in words (Y1 receptor): does not affect Y1 receptor agonist binding capacity or signaling; also recorded: did not bind to or allosterically regulate the Y1 receptor; also recorded: neither γ-MSH nor γ-MSH6–12 affected VDCC activity; also recorded: did not produce a significant inhibition of IBa relative to control | Reduction of IBa (N-type VDCC barium current) (Y1 receptor): 3–9% | Pressor response after forebrain CVO lesions, in words ([4]; IV, forebrain CVO lesions, ref [42]): attenuation of the IV γ-MSH cardiovascular response | Rightward shift of pressor dose–response curve ([4]; carotid versus femoral artery administration, ref [31]): 10 fold | Mechanism of MAP and HR effects / baroreceptor reflex, in words ([4]; ref [9]–[11], [33]): total inhibition of the baroreceptor reflex; also recorded: MAP and HR effects are due to an increase in preganglionic sympathetic drive, with no contribution of adrenal medullary catecholamine release | SNSR1 activation [7]: ~40 nM | Cardiovascular response (MAP and HR), in words [2]: produced both pressor and cardioaccelerator effects, with no evidence of a baroreceptor-mediated bradycardia; also recorded: produces a marked pressor and tachycardia response | Rise in MAP ([8]; mouse models): 38 mmHg | Pressor effect in MC3-R and MC4-R knockout mice, in words ([8]; peripheral administration): these effects can be elicited following peripheral administration of γ-MSH in the MC3-R and MC4-R knockout mice | Competition for rat Y1 receptor binding, in words (rat Y1 receptor): failed to compete with iodinated PYY for binding to the rat Y1 receptor; also recorded: Neither γ-MSH nor FMRFamide (a model RFamide peptide) competed with iodinated PYY for binding to the rat Y1 receptors

(D-Arg25) NPY
PRE vs POST BIBO3304 pressor response, in words ([5]; ICV or IV BIBO3304, listed as (D-Arg^25) NPY): not significantly different | PRE vs POST BIBO3304 pressor response, in words ([5]; ICV or IV BIBO3304, listed as D-Arg25 NPY): lack of a significant difference in the PRE and POST cardiovascular responses
